Experimental data as given in paper PMC7305236, “The atypical chemokine receptor ACKR3/CXCR7 is a broad-spectrum scavenger for opioid peptides” (Nature Communications, 2020).
Read-outs that look alike come from different tables or passages of the source.

Legend:
Design in all cases: dose or concentration left out as unconfirmed
[1] = target: T1, CCR2 (Homo sapiens, UniProt P41597); assay: Figure S2a opioid peptide screen on chemokine receptors; format: cell-based
T1 construct: expressed in transfected cells
T1 sequence (P41597 1-360 isoform P41597-2): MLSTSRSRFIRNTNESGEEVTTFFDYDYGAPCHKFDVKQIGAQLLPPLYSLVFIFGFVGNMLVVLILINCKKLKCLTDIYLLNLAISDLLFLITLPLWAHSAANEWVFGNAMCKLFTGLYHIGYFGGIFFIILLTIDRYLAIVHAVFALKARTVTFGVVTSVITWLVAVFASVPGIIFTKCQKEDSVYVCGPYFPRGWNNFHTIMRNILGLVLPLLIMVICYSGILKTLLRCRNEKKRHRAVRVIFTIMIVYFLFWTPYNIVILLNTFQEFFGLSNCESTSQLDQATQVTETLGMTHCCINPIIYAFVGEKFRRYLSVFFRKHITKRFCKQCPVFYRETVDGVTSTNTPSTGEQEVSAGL

[2] = target: T2, CXCR4 (Homo sapiens, UniProt P61073); assay: cell-based; conditions: Figure S2a, read-out: CXCR4 activity, ctrl+ = 100
T2 construct: expressed in transfected cells; host or cells: U87, transient cotransfection of pNBe vectors
T2 sequence (P61073 whole entry): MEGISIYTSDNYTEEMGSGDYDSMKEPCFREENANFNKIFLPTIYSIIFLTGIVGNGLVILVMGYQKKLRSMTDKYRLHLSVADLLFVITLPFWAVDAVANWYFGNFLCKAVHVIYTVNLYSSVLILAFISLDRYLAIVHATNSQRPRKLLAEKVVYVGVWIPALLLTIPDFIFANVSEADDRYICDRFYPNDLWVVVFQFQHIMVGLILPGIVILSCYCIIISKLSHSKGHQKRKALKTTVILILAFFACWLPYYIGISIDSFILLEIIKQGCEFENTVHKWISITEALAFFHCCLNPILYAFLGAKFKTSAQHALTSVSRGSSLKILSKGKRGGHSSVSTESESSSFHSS

[3] = target: T3, CXCR5 (Homo sapiens, UniProt P32302); assay: Figure S2a opioid peptide screen on chemokine receptors; format: cell-based
T3 construct: expressed in transfected cells
T3 sequence (P32302 1-372): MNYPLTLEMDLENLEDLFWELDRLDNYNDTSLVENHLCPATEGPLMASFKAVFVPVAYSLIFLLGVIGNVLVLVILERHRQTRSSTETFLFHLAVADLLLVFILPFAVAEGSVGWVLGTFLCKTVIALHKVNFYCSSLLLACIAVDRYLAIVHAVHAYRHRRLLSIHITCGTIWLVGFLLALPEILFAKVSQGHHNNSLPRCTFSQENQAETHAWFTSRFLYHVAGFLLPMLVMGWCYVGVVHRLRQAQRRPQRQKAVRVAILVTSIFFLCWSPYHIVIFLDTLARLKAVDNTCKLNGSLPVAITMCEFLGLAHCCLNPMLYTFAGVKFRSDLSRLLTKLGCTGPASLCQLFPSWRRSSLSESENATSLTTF

[4] = target: T4, CXCR6 (Homo sapiens, UniProt O00574); assay: as above; format: cell-based
T4 construct: expressed in transfected cells
T4 sequence (O00574 whole entry): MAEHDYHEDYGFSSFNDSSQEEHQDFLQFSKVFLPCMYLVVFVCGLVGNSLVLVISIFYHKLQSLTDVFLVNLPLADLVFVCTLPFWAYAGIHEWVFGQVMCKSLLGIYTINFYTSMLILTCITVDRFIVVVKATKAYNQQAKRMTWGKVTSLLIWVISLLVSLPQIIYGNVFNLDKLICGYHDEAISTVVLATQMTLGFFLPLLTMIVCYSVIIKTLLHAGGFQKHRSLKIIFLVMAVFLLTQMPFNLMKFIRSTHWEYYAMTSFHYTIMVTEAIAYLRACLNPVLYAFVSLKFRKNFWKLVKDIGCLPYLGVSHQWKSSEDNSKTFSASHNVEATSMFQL

[5] = target: T5, XCR1 (Homo sapiens, UniProt P46094); assay: as above; format: cell-based
T5 construct: expressed in transfected cells
T5 sequence (P46094 1-333): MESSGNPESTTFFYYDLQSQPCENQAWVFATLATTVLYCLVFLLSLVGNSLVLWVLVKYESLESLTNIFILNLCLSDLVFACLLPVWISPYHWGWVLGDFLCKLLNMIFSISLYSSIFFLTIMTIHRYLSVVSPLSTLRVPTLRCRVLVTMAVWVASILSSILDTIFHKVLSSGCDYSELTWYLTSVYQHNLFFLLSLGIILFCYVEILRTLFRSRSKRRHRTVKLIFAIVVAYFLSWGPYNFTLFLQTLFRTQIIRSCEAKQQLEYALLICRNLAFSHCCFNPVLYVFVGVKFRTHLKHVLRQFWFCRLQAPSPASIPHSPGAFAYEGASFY

[6] = target: ACKR3 (Homo sapiens, UniProt P25106); assay: cell-based; conditions: read-out: ACKR3 activity, ctrl+ = 100, Figure S2a
Sequence of ACKR3 (P25106 whole entry): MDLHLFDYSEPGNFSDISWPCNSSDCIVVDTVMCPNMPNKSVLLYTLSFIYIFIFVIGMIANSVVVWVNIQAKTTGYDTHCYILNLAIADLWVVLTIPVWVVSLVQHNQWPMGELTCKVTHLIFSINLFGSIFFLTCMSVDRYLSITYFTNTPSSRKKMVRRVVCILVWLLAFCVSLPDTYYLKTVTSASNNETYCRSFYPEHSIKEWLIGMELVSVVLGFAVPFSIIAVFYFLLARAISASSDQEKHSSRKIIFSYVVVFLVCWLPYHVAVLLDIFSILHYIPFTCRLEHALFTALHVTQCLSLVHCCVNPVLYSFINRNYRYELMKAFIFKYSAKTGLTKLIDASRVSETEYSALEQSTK

[7] = target: T6, CCR3 (Homo sapiens, UniProt P51677); assay: Figure S2a opioid peptide screen on chemokine receptors; conditions: read-out: CCR3 activity, ctrl+ = 100, Figure S2a
T6 sequence (P51677 1-355): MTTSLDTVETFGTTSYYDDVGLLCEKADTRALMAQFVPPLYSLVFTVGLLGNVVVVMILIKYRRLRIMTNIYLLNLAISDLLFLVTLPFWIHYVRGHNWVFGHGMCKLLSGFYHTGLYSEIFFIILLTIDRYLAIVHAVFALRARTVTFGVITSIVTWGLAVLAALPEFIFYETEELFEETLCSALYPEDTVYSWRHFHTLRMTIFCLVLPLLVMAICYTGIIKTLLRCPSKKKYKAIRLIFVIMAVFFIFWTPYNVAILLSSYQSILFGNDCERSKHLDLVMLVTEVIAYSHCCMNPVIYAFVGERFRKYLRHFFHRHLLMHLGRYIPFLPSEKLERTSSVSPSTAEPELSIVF

[8] = target: T7, ACKR4 (Homo sapiens, UniProt Q9NPB9); assay: as above; conditions: read-out: ACKR4 activity, ctrl+ = 100, Figure S2a
T7 sequence (Q9NPB9 1-350): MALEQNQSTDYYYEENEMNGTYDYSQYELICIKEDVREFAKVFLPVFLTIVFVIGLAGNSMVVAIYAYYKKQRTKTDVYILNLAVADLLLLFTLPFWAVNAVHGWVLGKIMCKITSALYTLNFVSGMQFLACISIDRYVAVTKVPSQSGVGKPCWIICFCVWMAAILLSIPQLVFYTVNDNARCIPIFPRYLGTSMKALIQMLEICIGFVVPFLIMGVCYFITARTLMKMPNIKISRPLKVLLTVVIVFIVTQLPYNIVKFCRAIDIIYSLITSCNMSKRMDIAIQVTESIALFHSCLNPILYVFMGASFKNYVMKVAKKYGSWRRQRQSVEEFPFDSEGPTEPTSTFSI

[9] = replicate 1, read-out: CCR2 activity, ctrl+ = 100
[10] = replicate 2, read-out: CCR2 activity, ctrl+ = 100
[11] = replicate 3, read-out: CCR2 activity, ctrl+ = 100
[12] = replicate 1, read-out: CXCR5 activity, ctrl+ = 100
[13] = replicate 2, read-out: CXCR5 activity, ctrl+ = 100
[14] = replicate 3, read-out: CXCR5 activity, ctrl+ = 100
[15] = replicate 1, read-out: CXCR6 activity, ctrl+ = 100
[16] = replicate 2, read-out: CXCR6 activity, ctrl+ = 100
[17] = replicate 3, read-out: CXCR6 activity, ctrl+ = 100
[18] = replicate 1, read-out: XCR1 activity, ctrl+ = 100
[19] = replicate 2, read-out: XCR1 activity, ctrl+ = 100
[20] = replicate 3, read-out: XCR1 activity, ctrl+ = 100

| Compound | activation [1, 9] [%] | activation [1, 10] [%] | activation [1, 11] [%] | activation ([2]; replicate 1) [%] | activation ([2]; replicate 2) [%] | activation ([2]; replicate 3) [%] | activation [3, 12] [%] | activation [3, 13] [%] | activation [3, 14] [%] | activation [4, 15] [%] | activation [4, 16] [%] | activation [4, 17] [%] | activation [5, 18] [%] | activation [5, 19] [%] | activation ([6]; replicate 1) [%] | activation ([6]; replicate 2) [%] | activation ([7]; replicate 1) [%] | activation ([7]; replicate 2) [%] | activation ([8]; replicate 1) [%] | activation ([8]; replicate 2) [%] | further results |
| --- | --- | --- | --- | --- | --- | --- | --- | --- | --- | --- | --- | --- | --- | --- | --- | --- | --- | --- | --- | --- | --- |
| C[C@H](NC(=O)CNC(=O)[C@@H](NC(=O)[C@H](Cc1ccccc1)NC(=O)CNC(=O)CNC(=O)[C@@H](N)Cc1ccccc1)[C@@H](C)O)C(=O)N[C@@H](CCCNC(=N)N)C(=O)N[C@@H](CCCCN)C(=O)N[C@@H](CO)C(=O)N[C@@H](C)C(=O)N[C@@H](CCCNC(=N)N)C(=O)N[C@@H](CCCCN)C(N)=O [Nociceptin 1-13] | 0.793 | -0.93 | 1.52 | 20.2 | -3.76 | 28.2 | -3.96 | -2.66 | -1.89 | -0.349 | -0.882 | 2.41 | 2.91 | 3.06 | 19.7 | 20.3 | 6.49 | 6.25 | -3.36 | -5.01 | activation [5, 20]: 4.45%; activation ([6]; replicate 3): 51.3%; activation ([7]; replicate 3): 14.8%; activation ([8]; replicate 3): 1.05% |
| CC[C@H](C)[C@H](NC(=O)[C@H](CCCNC(=N)N)NC(=O)[C@H](CCCNC(=N)N)NC(=O)[C@H](CC(C)C)NC(=O)[C@H](Cc1ccccc1)NC(=O)CNC(=O)CNC(=O)[C@@H](N)Cc1ccc(O)cc1)C(=O)N[C@@H](CCCNC(=N)N)C(=O)N1CCC[C@H]1C(=O)N[C@@H](CCCCN)C(=O)N[C@@H](CC(C)C)C(=O)N[C@@H](CCCCN)C(=O)N[C@@H](Cc1c[nH]c2ccccc12)C(=O)N[C@@H](CC(=O)O)C(=O)N[C@@H](CC(N)=O)C(=O)N[C@@H](CCC(N)=O)C(=O)O [Dynorphin A] | -0.0585 | -2.61 | -0.105 | -6.67 | -56.8 | 36.5 | -1.81 | -4.52 | 9.35 | -0.0479 | -0.578 | 0.283 | 4.69 | 7.1 | 127 | 60.7 | 33.4 | -17 | -2.58 | -4.52 | activation [5, 20]: 11%; activation ([6]; replicate 3): 99%; activation ([7]; replicate 3): 43.5%; activation ([8]; replicate 3): 0.188% |
| NC(=O)[C@H](Cc1ccccc1)NC(=O)[C@H](Cc1c[nH]c2ccccc12)NC(=O)[C@@H]1CCCN1C(=O)[C@@H](N)Cc1ccc(O)cc1 [Endomorphin-1] | 0.794 | -3.22 |  | 36.3 | 16.8 |  | 1.35 | -1.48 |  | -0.315 | 1.12 |  | 4.23 | 6.11 | 5.29 | 17 | 18.4 | 4.97 | 3.4 | 1.77 |  |
| CC(C)C[C@H](NC(=O)[C@H](Cc1ccccc1)NC(=O)CNC(=O)CNC(=O)[C@@H](N)Cc1ccc(O)cc1)C(=O)N[C@@H](CCCN=C(N)N)C(=O)N[C@@H](CCCN=C(N)N)C(=O)N[C@@H](CCC(N)=O)C(=O)N[C@@H](Cc1ccccc1)C(=O)N[C@@H](CCCCN)C(=O)N[C@H](C(=O)N[C@H](C(=O)N[C@H](C(=O)O)[C@@H](C)O)C(C)C)C(C)C [Dynorphin B] | 0.688 | -2.18 | 1.67 | -12.2 | 7.15 | -6.95 | -2.46 | -6.11 | 11.3 | -1.05 | -1.2 | 0.0809 | -1.79 | 0.791 | 87 | 63.5 | 22.6 | -7.56 | -5.6 | -0.628 | activation [5, 20]: 9.32%; activation ([6]; replicate 3): 94.7%; activation ([8]; replicate 3): 0.166% |
| CC[C@H](C)[C@H](NC(=O)[C@H](CCCNC(=N)N)NC(=O)[C@H](CCCNC(=N)N)NC(=O)[C@H](CC(C)C)NC(=O)[C@H](Cc1ccccc1)NC(=O)CNC(=O)CN)C(=O)N[C@@H](CCCNC(=N)N)C(=O)N1CCC[C@H]1C(=O)N[C@@H](CCCCN)C(=O)N[C@@H](CC(C)C)C(=O)N[C@@H](CCCCN)C(=O)N[C@@H](Cc1c[nH]c2ccccc12)C(=O)N[C@@H](CC(=O)O)C(=O)N[C@@H](CC(N)=O)C(=O)N[C@@H](CCC(N)=O)C(=O)O [Dynorphin 2-17] | 0.747 | -1.44 |  | -9.77 | -26.7 |  | -2.49 | -3.33 |  | -0.523 | -1.13 |  | 3.87 | -3.46 | 72.7 | 26.1 | 12.7 | -19.1 | -1.91 | -4.71 |  |
